Source: the supplement of paper PMC5579334
± gives the standard deviation of the averaged measurements.

Columns and labels:
STS26T [1] = assay: drug sensitivity score (DSS, CellTiter-Glo viability, 72 h) (DSS (dimensionless)); higher = more sensitive; extreme values may be limits of the assay
Method in brief: (§1)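 After seeding 750–1000 cells per well of MPNST cell lines or primary human Schwann cells into 384-well plates preprinted with each compound at five concentrations in 10-fold steps, plates were kept 72 h at 37 °C, 5% CO2. Viability was read as CellTiter-Glo ATP luminescence relative to vehicle and positive-control wells, with duplicates averaged where present. The data were fitted with four-parameter logistic models. Drug sensitivity score and relative IC50, censored at the top concentration, derive from the fits, and percent inhibition refers to the top concentration.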

S1507-2 [2] = assay: as above
Method in brief: as §1

ST8814 [3] = assay: as above
Method in brief: as §1

[4] = system: HSC1 (primary human Schwann cells); assay: as above
Method in brief: as §1

YST-1 [5] = assay: as above
Method in brief: as §1

HS-PSS [6] = assay: as above
Method in brief: as §1

HS-Sch-2 [7] = assay: as above
Method in brief: as §1

[8] = system: HSC2 (primary human Schwann cells); assay: as above
Method in brief: as §1

S462 [9] = assay: as above
Method in brief: as §1

STS26T [10] = assay: drug sensitivity score (DSS, CellTox-Green cytotoxicity, 72 h) (DSS (dimensionless)); higher = more cytotoxic; extreme values may be limits of the assay
Method in brief: (§2)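 For 72 h at 37 °C, MPNST cell lines and primary human Schwann cells were exposed in 384-well plates to five 10-fold compound dilutions. CellTox-Green, added before seeding at a final 1:1000 dilution, gave fluorescence from DNA released by disrupted cells. Signals were scaled to vehicle and positive-control wells, cultures failing plate quality control were left out, and four-parameter logistic fits were applied. Relative IC50 and drug sensitivity score were derived from the fits, with IC50 censored at the top concentration.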

S1507-2 [11] = assay: as above
Method in brief: as §2

ST8814 [12] = assay: as above
Method in brief: as §2

[13] = system: HSC1 (primary human Schwann cells); assay: as above
Method in brief: as §2

HS-PSS [14] = assay: as above
Method in brief: as §2

[15] = system: HSC2 (primary human Schwann cells); assay: as above
Method in brief: as §2

STS26T [16] = assay: % inhibition of CellTiter-Glo viability at highest tested concentration (72 h), relative to DMSO and benzethonium chloride controls; higher = more inhibition
Method in brief: as §1

S1507-2 [17] = assay: as above
Method in brief: as §1

ST8814 [18] = assay: as above
Method in brief: as §1

[19] = system: HSC1 (primary human Schwann cells); assay: as above
Method in brief: as §1

YST-1 [20] = assay: as above
Method in brief: as §1

HS-PSS [21] = assay: as above
Method in brief: as §1

HS-Sch-2 [22] = assay: as above
Method in brief: as §1

[23] = system: HSC2 (primary human Schwann cells); assay: as above
Method in brief: as §1

S462 [24] = assay: as above
Method in brief: as §1

CCCCCCCCc1ccc(CCC(N)(CO)CO)cc1 [Fingolimod] (max concentration tested 10000 nM)
drug sensitivity score (STS26T [1]): 6.58 | drug sensitivity score (S1507-2 [2]): 7.98 ± 1 | drug sensitivity score (ST8814 [3]): 6.27 | drug sensitivity score [4]: 7.62 | drug sensitivity score (YST-1 [5]): 5.97 | drug sensitivity score (HS-PSS [6]): 8.31 | drug sensitivity score (HS-Sch-2 [7]): 6.87 | drug sensitivity score [8]: 7.17 | drug sensitivity score (S462 [9]): 5.79 ± 0.46 | drug sensitivity score (STS26T [10]): 4.94 | drug sensitivity score (S1507-2 [11]): 13.3 ± 9.3 | drug sensitivity score (ST8814 [12]): 5.09 | drug sensitivity score [13]: 8.13 | drug sensitivity score (HS-PSS [14]): 5.38 | drug sensitivity score [15]: 7.44 | % inhibition (STS26T [16]): 102% | % inhibition (S1507-2 [17]): 103 ± 2.5% | % inhibition (ST8814 [18]): 103% | % inhibition [19]: 103% | % inhibition (YST-1 [20]): 101% | % inhibition (HS-PSS [21]): 101% | % inhibition (HS-Sch-2 [22]): 101% | % inhibition [23]: 101% | % inhibition (S462 [24]): 101.6 ± 0.59%

CN1CCC(COc2cnc(-c3cccc(Cn4nc(-c5cccc(C#N)c5)ccc4=O)c3)nc2)CC1 (max concentration tested 1000 nM)
drug sensitivity score (STS26T [1]): 0.286 | drug sensitivity score (S1507-2 [2]): 7.535 ± 0.062 | drug sensitivity score (ST8814 [3]): 0 | drug sensitivity score [4]: 0 | drug sensitivity score (YST-1 [5]): 0 | drug sensitivity score (HS-PSS [6]): 0 | drug sensitivity score (HS-Sch-2 [7]): 0 | drug sensitivity score [8]: 0 | drug sensitivity score (S462 [9]): 2.88 ± 4.1 | drug sensitivity score (STS26T [10]): 0.0133 | drug sensitivity score (S1507-2 [11]): 0.27 ± 0.38 | drug sensitivity score (ST8814 [12]): 0 | drug sensitivity score [13]: 0 | drug sensitivity score (HS-PSS [14]): 0 | drug sensitivity score [15]: 0 | % inhibition (STS26T [16]): 13.9% | % inhibition (S1507-2 [17]): 28.3 ± 1.1% | % inhibition (ST8814 [18]): 9.67% | % inhibition [19]: 6.94% | % inhibition (YST-1 [20]): 2.87% | % inhibition (HS-PSS [21]): 2.35% | % inhibition (HS-Sch-2 [22]): 0.48% | % inhibition [23]: 8.76% | % inhibition (S462 [24]): 12.1 ± 1.4%

Clc1ccc(Nc2nnc(Cc3ccncc3)c3ccccc23)cc1 [Vatalanib] (max concentration tested 10000 nM)
drug sensitivity score (STS26T [1]): 0 | drug sensitivity score (S1507-2 [2]): 0 | drug sensitivity score (ST8814 [3]): 0 | drug sensitivity score [4]: 0 | drug sensitivity score (YST-1 [5]): 1.52 | drug sensitivity score (HS-PSS [6]): 0 | drug sensitivity score (HS-Sch-2 [7]): 1.77 | drug sensitivity score [8]: 0.0903 | drug sensitivity score (S462 [9]): 0 | drug sensitivity score (STS26T [10]): 0 | drug sensitivity score (S1507-2 [11]): 0 | drug sensitivity score (ST8814 [12]): 0 | drug sensitivity score [13]: 0 | drug sensitivity score (HS-PSS [14]): 0 | drug sensitivity score [15]: 0 | % inhibition (STS26T [16]): 6.33% | % inhibition (S1507-2 [17]): 2.66 ± 4.9% | % inhibition (ST8814 [18]): 1.01% | % inhibition [19]: 5.92% | % inhibition (YST-1 [20]): 10.3% | % inhibition (HS-PSS [21]): 11.8% | % inhibition (HS-Sch-2 [22]): 12.3% | % inhibition [23]: 13.4% | % inhibition (S462 [24]): 5.29 ± 6.4%

COc1cc2c(N3CCN(C(=O)Nc4ccc(OC(C)C)cc4)CC3)ncnc2cc1OCCCN1CCCCC1 [Tandutinib] (max concentration tested 1000 nM)
drug sensitivity score (STS26T [1]): 0 | drug sensitivity score (S1507-2 [2]): 0.0556 ± 0.079 | drug sensitivity score (ST8814 [3]): 0 | drug sensitivity score [4]: 0 | drug sensitivity score (YST-1 [5]): 0 | drug sensitivity score (HS-PSS [6]): 0 | drug sensitivity score (HS-Sch-2 [7]): 0 | drug sensitivity score [8]: 0 | drug sensitivity score (S462 [9]): 0 | drug sensitivity score (STS26T [10]): 0 | drug sensitivity score (S1507-2 [11]): 0 | drug sensitivity score (ST8814 [12]): 0 | drug sensitivity score [13]: 0 | drug sensitivity score (HS-PSS [14]): 0 | drug sensitivity score [15]: 0 | % inhibition (STS26T [16]): 6.33% | % inhibition (S1507-2 [17]): 9.56 ± 1.9% | % inhibition (ST8814 [18]): 8.58% | % inhibition [19]: 2.98% | % inhibition (YST-1 [20]): -3.87% | % inhibition (HS-PSS [21]): 7.75% | % inhibition (HS-Sch-2 [22]): -3.01% | % inhibition [23]: -9.62% | % inhibition (S462 [24]): 0.414 ± 5.6%

COc1cc2c(NC3CCN(C(C)C)CC3)nc(C3CCCCC3)nc2cc1OCCCN1CCCC1 [UNC0638] (max concentration tested 10000 nM)
drug sensitivity score (STS26T [1]): 5.05 | drug sensitivity score (S1507-2 [2]): 8.72 ± 0.32 | drug sensitivity score (ST8814 [3]): 6.45 | drug sensitivity score [4]: 0.362 | drug sensitivity score (YST-1 [5]): 6.1 | drug sensitivity score (HS-PSS [6]): 8.75 | drug sensitivity score (HS-Sch-2 [7]): 7.32 | drug sensitivity score [8]: 0.116 | drug sensitivity score (S462 [9]): 6.31 ± 2.1 | drug sensitivity score (STS26T [10]): 5.16 | drug sensitivity score (S1507-2 [11]): 23.4 ± 25 | drug sensitivity score (ST8814 [12]): 7.41 | drug sensitivity score [13]: 0 | drug sensitivity score (HS-PSS [14]): 6.72 | drug sensitivity score [15]: 0 | % inhibition (STS26T [16]): 99.1% | % inhibition (S1507-2 [17]): 99.6 ± 1% | % inhibition (ST8814 [18]): 98.6% | % inhibition [19]: 21.5% | % inhibition (YST-1 [20]): 100% | % inhibition (HS-PSS [21]): 101% | % inhibition (HS-Sch-2 [22]): 101% | % inhibition [23]: 14.9% | % inhibition (S462 [24]): 98.9 ± 1.6%

CCN(CC)CCNC(=O)c1c(C)[nH]c(/C=C2\C(=O)Nc3ccc(F)cc32)c1C [Sunitinib] (max concentration tested 1000 nM)
drug sensitivity score (STS26T [1]): 0 | drug sensitivity score (S1507-2 [2]): 0.923 ± 1.3 | drug sensitivity score (ST8814 [3]): 0.732 | drug sensitivity score [4]: 0 | drug sensitivity score (YST-1 [5]): 0 | drug sensitivity score (HS-PSS [6]): 0 | drug sensitivity score (HS-Sch-2 [7]): 0 | drug sensitivity score [8]: 0 | drug sensitivity score (S462 [9]): 0.473 ± 0.41 | drug sensitivity score (STS26T [10]): 0 | drug sensitivity score (S1507-2 [11]): 17.2 ± 24 | drug sensitivity score (ST8814 [12]): 0 | drug sensitivity score [13]: 0 | drug sensitivity score (HS-PSS [14]): 0 | drug sensitivity score [15]: 0 | % inhibition (STS26T [16]): 8.24% | % inhibition (S1507-2 [17]): 17.7 ± 11% | % inhibition (ST8814 [18]): 14.7% | % inhibition [19]: -2.06% | % inhibition (YST-1 [20]): -7.4% | % inhibition (HS-PSS [21]): 11.8% | % inhibition (HS-Sch-2 [22]): 6.65% | % inhibition [23]: -10.9% | % inhibition (S462 [24]): 16.1 ± 0.67%

COc1cc(CCc2cc(NC(=O)c3ccc(N4CC(C)NC(C)C4)cc3)n[nH]2)cc(OC)c1 (stereo not drawn) [AZD4547] (max concentration tested 1000 nM)
drug sensitivity score (STS26T [1]): 0 | drug sensitivity score (S1507-2 [2]): 1.28 ± 0.63 | drug sensitivity score (ST8814 [3]): 0 | drug sensitivity score [4]: 3.09 | drug sensitivity score (YST-1 [5]): 0 | drug sensitivity score (HS-PSS [6]): 0 | drug sensitivity score (HS-Sch-2 [7]): 1.94 | drug sensitivity score [8]: 0 | drug sensitivity score (S462 [9]): 2.85 ± 0.75 | drug sensitivity score (STS26T [10]): 0 | drug sensitivity score (S1507-2 [11]): 0.158 ± 0.22 | drug sensitivity score (ST8814 [12]): 0 | drug sensitivity score [13]: 0 | drug sensitivity score (HS-PSS [14]): 0 | drug sensitivity score [15]: 0 | % inhibition (STS26T [16]): -2.98% | % inhibition (S1507-2 [17]): 22.2 ± 3.5% | % inhibition (ST8814 [18]): 9.11% | % inhibition [19]: 22.4% | % inhibition (YST-1 [20]): 3.65% | % inhibition (HS-PSS [21]): 4.91% | % inhibition (HS-Sch-2 [22]): 33.5% | % inhibition [23]: 4.39% | % inhibition (S462 [24]): 24.6 ± 2.2%
